Test system: human MGC-803 xenograft
Assay: Antitumor activity in vivo, MGC-803 xenograft in nude mice
Design: species or system BALB/c nu/nu mice
Conditions: 50 mg/kg intraperitoneally twice a week
Description: The animals were housed in specific pathogen-free (SPF) conditions at Key Laboratory of Brain Functional Genomics, Ministry of Education, and were acclimatized for a week prior to use. […] When the tumors reached a mean group size of 100 ~ 150 mm^3, the mice were randomized into control and treatment groups to receive treatment accordingly. […] The tumor growth was recorded with the measurement of length (L) and width (W) by caliper every other day, and calculated as tumor volume (V) = L × W^2/2. Meanwhile, the body weights of mice were recorded. The tumor volume at day n was expressed as relative tumor volume (RTV) according to the following formula: RTV% = (TVn/TV0) ×100%, where TVn is the tumor volume at day n and TV0 is the tumor volume at day 0. The therapeutic effect of treatment was calculated with formula T/C (%) = mean RTV of the treated group/mean RTV of the control group × 100%. […] The tumor regression of individual mouse was defined as the tumor volume at the end was less than the tumor volume when treatment was initiated.

CCc1c2c(nc3ccc(OC(=O)N4CCC(N5CCCCC5)CC4)cc13)-c1cc3c(c(=O)n1C2)COC(=O)[C@]3(O)CC [Irinotecan, reference compound]
T/C (%): 8.04%
Inhibition rate (%) (by tumor weight): 96.2%
Body weight (g) End (mean ± SEM): 21.4 ± 0.2 g
Tumor weight (mean ± SEM, control 0.79 g): 0.03 ± 0.01 g

From publication PMC5124248, “Antitumor activity of TY-011 against gastric cancer by inhibiting Aurora A, Aurora B and VEGFR2 kinases” (Journal of Experimental & Clinical Cancer Research : CR, 2016)
